Results as given in patent publication US7989649B2, “Tumor imaging compounds” (Emory University, priority 2002, dated 2011).

Tests used:
[1] = system: 9 L gliosarcoma cells; assay: Amino acid uptake inhibition assay in 9 L gliosarcoma cells; format: cell-based, rat
Experimental: Amino acid uptake inhibition assays. The 9 L gliosarcoma cells were initially grown as monolayers in T-flasks containing Dulbecco's Modified Eagle's Medium (DMEM) under humidified incubator conditions (37° C., 5% CO2/95% air). The growth media was supplemented with 10% fetal calf serum and antibiotics (10,000 units/ml penicillin and 10 mg/ml streptomycin). The growth media was replaced three times per week, and the cells were passaged so the cells would reach confluency in a week's time.
When the monolayers were confluent, cells were prepared for experimentation in the following manner. Growth media was removed from the T-flask, and the monolayer cells were exposed to 1× trypsin:EDTA for ˜1 minute to weaken the protein attachments between the cells and the flask. The flask was then slapped, causing the cells to release. Supplemented media was added to inhibit the proteolytic action of the trypsin, and the cells were aspirated through an 18 Ga needle until they were monodisperse. A sample of the cells was counted under a microscope using a hemocytometer, and the live/dead fraction estimated through trypan blue staining (>98% viability). The remainder of the cells was placed into a centrifuge tube, centrifuged at 75 G for 5 minutes, and the supernatant was removed. The cells were then resuspended in amino-acid/serum-free DMEM salts.
In this study, approximately 4.55×10^5 cells were exposed to either [^18F]5a or [^18F]5b (5 μCi) in 3 ml of amino acid free media±transporter inhibitors (10 mM) for 30 minutes under incubator conditions in 12×75 mm glass vials. Each assay condition was performed in duplicate. After incubation, cells were twice centrifuged (75 G for 5 minutes) and rinsed with ice-cold amino-acid/serum-free DMEM salts to remove residual activity in the supernatant. The vials were placed in a Packard Cobra II Auto-Gamma counter, the raw counts decay corrected, and the activity per cell number determined. The data from these studies (expressed as percent uptake relative to control) were graphed using Excel, with statistical comparisons between the groups analyzed using a 1-way ANOVA (GraphPad Prism software package).

[2] = system: 9 L gliosarcoma tumor; assay: Biodistribution in Fischer rats with intracranial 9 L gliosarcoma tumor; format: in vivo; conditions: tumor-bearing Fischer rats; for Tissue distribution of radioactivity, Brain: normal brain contralateral to tumor
Experimental: Tumor induction and animal preparation. All animal experiments were carried out under humane conditions and were approved by the Institutional Animal Use and Care Committee (IUCAC) at Emory University. Rat 9 L gliosarcoma cells were implanted into the brains of male Fischer rats as described previously [Shoup, T M et al. (1999), J. Nucl. Med. 40:331-338]. Briefly, anesthetized rats placed in a stereotactic head holder were injected with a suspension of 4×10^4 rat 9 L gliosarcoma cells (1×10^7 per mL) in a location 3 mm right of midline and 1 mm anterior to the bregma at a depth of 5 mm deep to the outer table. The injection was performed over the course of 2 minutes, and the needle was withdrawn over the course of 1 minute to minimize the backflow of tumor cells. The burr hole and scalp incision were closed, and the animals were returned to their original colony after recovering from the procedure. Intracranial tumors developed that produced weight loss, apathy and hunched posture in the tumor-bearing rats, and the animals were used at 17-19 days after implantation. Of the 30 animals implanted with tumor cells, 25 developed tumors visible to the naked eye upon dissection and were used in the study.
The tissue distribution of radioactivity was also determined in tumor-bearing Fischer 344 rats following intravenous injection of ˜35 μCi of [^18F]5a or [^18F]5b in 0.3 mL of sterile water. The procedure was similar to that already described for normal rats with the following modifications. The tail vein injections were performed in awake animals using a RTV-190 rodent restraint device (Braintree Scientific) to avoid mortality accompanying anesthesia in the presence of an intracranial mass. The animals were killed at 5 minutes, 60 minutes or 120 minutes post-injection. The same tissues were assayed as in normal rats with the addition of the tumor tissue, and the corresponding region of brain contralateral to the tumor was excised and used for comparison. The uptake in the tumor and contralateral brain at each time point was compared via a two-tailed t-test for paired observations (GraphPad Prism software package).

[3] = 60 min after injection, listed as [^18F]N-MeFAMP (5b)
[4] = 120 min after injection, listed as [^18F]N-MeFAMP (5b)

SMILES: CNC(C)(CF)C(=O)O (racemic) [[^18F]5b, 3-fluoro-2-methyl-2-(methylamino)propanoic acid]
- uptake of activity blocked by BCH relative to controls ([1]; BCH 10 mM, 30 minutes, 9 L gliosarcoma cells): 33%
- uptake of activity blocked by N-MeAIB relative to controls ([1]; N-MeAIB 10 mM, 30 minutes, 9 L gliosarcoma cells): 88%
- intracellular accumulation in 9 L gliosarcoma cells ([1]; absence of inhibitors, 30 minutes of incubation): 0.50 % of the initial dose per million cells
- substrate for A-type amino acid transport system ([1]; based on inhibition of uptake by N-MeAIB): substrates for the A-type amino acid transport system
- selectivity for A-type amino acid transport ([1]; compared with [18F]5a): more selective substrate for the A-type amino transport system than [^18F]5a
- Tissue distribution of radioactivity, Blood ([2]; 5 min after injection): 0.69 ± 0.04 percent dose per gram
- Tissue distribution of radioactivity, Bone ([2]; 5 min after injection): 0.33 ± 0.04 percent dose per gram
- Tissue distribution of radioactivity, Heart ([2]; 5 min after injection): 0.34 ± 0.02 percent dose per gram
- Tissue distribution of radioactivity, Kidney ([2]; 5 min after injection): 9.33 ± 0.36 percent dose per gram
- Tissue distribution of radioactivity, Liver ([2]; 5 min after injection): 0.94 ± 0.12 percent dose per gram
- Tissue distribution of radioactivity, Lung ([2]; 5 min after injection): 0.61 ± 0.04 percent dose per gram
- Tissue distribution of radioactivity, Muscle ([2]; 5 min after injection): 0.22 ± 0.011 percent dose per gram
- Tissue distribution of radioactivity, Pancreas ([2]; 5 min after injection): 2.95 ± 0.58 percent dose per gram
- Tissue distribution of radioactivity, Spleen ([2]; 5 min after injection): 0.47 ± 0.04 percent dose per gram
- Tissue distribution of radioactivity, Testis ([2]; 5 min after injection): 0.19 ± 0.008 percent dose per gram
- Tissue distribution of radioactivity, Tumor ([2]; 5 min after injection): 1.29 percent dose per gram
- Tissue distribution of radioactivity, Tumor ([2]; 5 min after injection, listed as [^18F]N-MeFAMP (5b)): 1.29 ± 0.28 percent dose per gram
- Tissue distribution of radioactivity, Blood ([2]; 60 min after injection): 0.17 ± 0.02 percent dose per gram
- Tissue distribution of radioactivity, Bone ([2]; 60 min after injection): 0.23 ± 0.04 percent dose per gram
- Tissue distribution of radioactivity, Heart ([2]; 60 min after injection): 0.25 ± 0.03 percent dose per gram
- Tissue distribution of radioactivity, Kidney ([2]; 60 min after injection): 2.79 ± 0.31 percent dose per gram
- Tissue distribution of radioactivity, Liver ([2]; 60 min after injection): 0.85 ± 0.17 percent dose per gram
- Tissue distribution of radioactivity, Lung ([2]; 60 min after injection): 0.26 ± 0.03 percent dose per gram
- Tissue distribution of radioactivity, Muscle ([2]; 60 min after injection): 0.19 ± 0.02 percent dose per gram
- Tissue distribution of radioactivity, Pancreas ([2]; 60 min after injection): 2.42 ± 0.27 percent dose per gram
- Tissue distribution of radioactivity, Spleen ([2]; 60 min after injection): 0.45 ± 0.06 percent dose per gram
- Tissue distribution of radioactivity, Testis ([2]; 60 min after injection): 0.08 ± 0.008 percent dose per gram
- Tissue distribution of radioactivity, Tumor ([2]; 60 min after injection): 2.28 percent dose per gram
- Tissue distribution of radioactivity, Tumor [2, 3]: 2.28 ± 0.16 percent dose per gram
- Tissue distribution of radioactivity, Blood ([2]; 120 min after injection): 0.10 ± 0.007 percent dose per gram
- Tissue distribution of radioactivity, Bone ([2]; 120 min after injection): 0.19 ± 0.02 percent dose per gram
- Tissue distribution of radioactivity, Heart ([2]; 120 min after injection): 0.19 ± 0.02 percent dose per gram
- Tissue distribution of radioactivity, Kidney ([2]; 120 min after injection): 1.59 ± 0.19 percent dose per gram
- Tissue distribution of radioactivity, Liver ([2]; 120 min after injection): 0.41 ± 0.06 percent dose per gram
- Tissue distribution of radioactivity, Lung ([2]; 120 min after injection): 0.19 ± 0.011 percent dose per gram
- Tissue distribution of radioactivity, Muscle ([2]; 120 min after injection): 0.16 ± 0.012 percent dose per gram
- Tissue distribution of radioactivity, Pancreas ([2]; 120 min after injection): 1.74 ± 0.24 percent dose per gram
- Tissue distribution of radioactivity, Spleen ([2]; 120 min after injection): 0.40 ± 0.02 percent dose per gram
- Tissue distribution of radioactivity, Testis ([2]; 120 min after injection): 0.08 ± 0.005 percent dose per gram
- Tissue distribution of radioactivity, Tumor ([2]; 120 min after injection): 1.94 percent dose per gram
- Tissue distribution of radioactivity, Tumor [2, 4]: 1.94 ± 0.12 percent dose per gram
- Tissue distribution of radioactivity, Brain ([2]; 5 min after injection): 0.032 ± 0.002 percent dose per gram
- Tissue distribution of radioactivity, Brain ([2]; 60 min after injection): 0.022 percent dose per gram
- Tissue distribution of radioactivity, Brain [2, 3]: 0.022 ± 0.006 percent dose per gram
- Tissue distribution of radioactivity, Brain ([2]; 120 min after injection): 0.020 percent dose per gram
- Tissue distribution of radioactivity, Brain [2, 4]: 0.020 ± 0.005 percent dose per gram
